In patent publication US4053604A (priority 1975, dated 1977):
Where “and” joins values, the source holds several entries; their conditions need not be identical. Equal values may be shown once. Entries after “also recorded” stand apart in the source; their conditions may differ.

Columns and labels:
[1] = tail-flick test, analgesic activity of the agent alone; format: in vivo, albino mice
Excerpt: (§1) In the following experiments, phenoperidine and Compound I are used in the form of their hydrochloride salt and droperidol in the form of its free base in the presence of lactic acid for adjustment to pH to 3.4. Results are expressed on the basis of the form of the drug employed (i.e., free base or hydrochloride salt).
(§2) Results of such tests using albino mice are illustrated by tables 1,2 and 3 in which the neuroleptic agent, droperidol, is included for comparative purposes.
*The dose which increased analgesia by 50% when tested 15 minutes after […]

[2] = tail-flick test, potentiation of the analgesic activity of phenoperidine; format: in vivo, albino mice
Excerpt: as §1, §2
Potentiation of the Analgesic Activity (ED50) of Phenoperidine,
i.e. 0.5 mg/kg, by varying Doses of Neuroleptic Agents.
*PD50 refers to the dose of the neuroleptic which increased the
analgesic activity (ED50) of phenoperidine by 50%.
Modified Analgesic Activity of Phenoperidine in
the Presence of the Neuroleptic PD50. -
*ED50 refers to the analgesic activity of phenoperidine after
pretreatment with a fixed dose (PD50) of the neuroleptic agents.

[3] = behavioral changes and side effects in cebus monkeys; format: in vivo; conditions: for Behavioral Changes / Side Effects / Duration / Onset / time of onset of side effect (Extrapyramidal): individual monkey

In the case of `CC(C)[C@@]1(O)CCN2C[C@@H]3c4ccccc4CCc4cccc(c43)[C@H]2C1` [Compound 1, (+)(4a,13b-trans)-(3-hydroxy,13b-trans)-3-isopropyl-2,- 3,4,4a,8,9,13b,14-octahydro-lH-benzo[6,7]cyclohepta[1,2,3-de]pyrido[2,1-a]isoquinolin-3-ol], the ED50 ([1]; Mus musculus, ip, 0.25 h, i.p., dose which increased analgesia by 50% when tested 15 minutes after drug administration) is reported as greater than 35 mg/kg, the “analgesic activity when given alone” value ([1]; in words, listed as Compound I) is reported as “only a negligible amount of analgesic activity; also recorded: no analgesic activity could be demonstrated” and the “relative potentiating activity, Compound I versus droperidol” value ([2]; in words) is reported as “equiactive”. For the same molecule, the “enhancement of analgesic activity of phenoperidine by concomitant administration” value ([2]; in words, listed as Compound I) was “well defined potentiating effect on analgesic agents; also recorded: significantly enhanced”, the “PD50 of Neuroleptic Agent (dose which increased the analgesic activity (ED50) of phenoperidine by 50%)” value ([2]; mouse, in vivo, ip) was 0.56 ± 0.06 mg/kg and the “Behavioral Changes” value ([3]; Compound 1, 5 μg/kg i.v.) was “None”. The “Side Effects” value ([3]; Compound 1, 5 μg/kg i.v.) was “None”, the “Behavioral Changes” value ([3]; Compound 1, 10 μg/kg i.v.) was “Passive; also recorded: Huddle” and the Duration ([3]; Compound 1, 10 μg/kg i.v.) was 3 h and > 4 h and 2 h. The Onset ([3]; Compound 1, 10 μg/kg i.v.) was 30 min and 20 min and 15 min and 60 min, the “Side Effects” value ([3]; Compound 1, 10 μg/kg i.v.) was “None” and the “Behavioral Changes” value ([3]; Compound 1, 20 μg/kg i.v.) was “Passive-Huddle”. For the same molecule, the Duration ([3]; Compound 1, 20 μg/kg i.v.) was 4 h and > 5 h and 3 h, the Onset ([3]; Compound 1, 20 μg/kg i.v.) was 20 min and 15 min and the “Side Effects” value ([3]; Compound 1, 20 μg/kg i.v.) was “None”. The “Behavioral Changes” value ([3]; Compound 1, 50 μg/kg i.v.) was “Huddle”, the Duration ([3]; Compound 1, 50 μg/kg i.v.) was greater than 4 h and the Onset ([3]; Compound 1, 50 μg/kg i.v.) was 20 min and 10 min. For the same molecule, the “Side Effects” value ([3]; Compound 1, 50 μg/kg i.v.) was “Extrapyramidal and None”, the “time of onset of side effect (Extrapyramidal)” value ([3]; Compound 1, 50 μg/kg i.v.) was 30 min and 40 min and the “Behavioral Changes” value ([3]; Compound 1, 100 μg/kg i.v.) was “Huddle”. For the same molecule, the Duration ([3]; Compound 1, 100 μg/kg i.v.) was greater than 24 h, the Onset ([3]; Compound 1, 100 μg/kg i.v.) was 10 min and 5 min and the “Side Effects” value ([3]; Compound 1, 100 μg/kg i.v.) was “Extrapyramidal”. The “time of onset of side effect (Extrapyramidal)” value ([3]; Compound 1, 100 μg/kg i.v.) was 15 min and 10 min, the “doses at which signs of excitomotor agitation (extrapyramidal excitation) were observed” value ([3]; i.v.) was 0.05 to 0.1 mg/kg and the eliciting behavioral changes ([3]; in words) was “effective in eliciting behavioral changes at very small doses”.
